In article PMC3914206:

Legend:
Format in all cases: binding
Conditions in all cases: Compound Concentration 10 µM
[1] = molecular target: T1, panel of 442 kinases (Homo sapiens, UniProt P21802)
T1 construct: purchased KINOMEscan
Description: (§1) We assessed the selectivity of members of this scaffold using the KINOMEscan methodology across a near comprehensive panel of 442 kinases [[18,27]].

[2] = molecular target: T2, panel of 442 kinases (Homo sapiens, UniProt O94768)
T2 construct: purchased KINOMEscan
T2 sequence (O94768 1-372): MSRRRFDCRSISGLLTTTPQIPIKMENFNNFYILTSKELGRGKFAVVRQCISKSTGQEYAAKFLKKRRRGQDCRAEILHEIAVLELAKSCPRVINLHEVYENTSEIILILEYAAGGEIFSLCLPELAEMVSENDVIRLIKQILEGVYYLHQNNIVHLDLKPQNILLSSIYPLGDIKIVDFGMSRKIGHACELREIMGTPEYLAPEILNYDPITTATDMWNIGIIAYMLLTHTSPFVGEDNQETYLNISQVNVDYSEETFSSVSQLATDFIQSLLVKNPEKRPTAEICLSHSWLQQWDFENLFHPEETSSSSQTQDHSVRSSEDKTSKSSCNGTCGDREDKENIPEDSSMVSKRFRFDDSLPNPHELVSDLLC
Description: as §1

[3] = molecular target: T3, panel of 442 kinases (Homo sapiens, UniProt Q09013)
T3 construct: purchased KINOMEscan
T3 sequence (Q09013 1-629): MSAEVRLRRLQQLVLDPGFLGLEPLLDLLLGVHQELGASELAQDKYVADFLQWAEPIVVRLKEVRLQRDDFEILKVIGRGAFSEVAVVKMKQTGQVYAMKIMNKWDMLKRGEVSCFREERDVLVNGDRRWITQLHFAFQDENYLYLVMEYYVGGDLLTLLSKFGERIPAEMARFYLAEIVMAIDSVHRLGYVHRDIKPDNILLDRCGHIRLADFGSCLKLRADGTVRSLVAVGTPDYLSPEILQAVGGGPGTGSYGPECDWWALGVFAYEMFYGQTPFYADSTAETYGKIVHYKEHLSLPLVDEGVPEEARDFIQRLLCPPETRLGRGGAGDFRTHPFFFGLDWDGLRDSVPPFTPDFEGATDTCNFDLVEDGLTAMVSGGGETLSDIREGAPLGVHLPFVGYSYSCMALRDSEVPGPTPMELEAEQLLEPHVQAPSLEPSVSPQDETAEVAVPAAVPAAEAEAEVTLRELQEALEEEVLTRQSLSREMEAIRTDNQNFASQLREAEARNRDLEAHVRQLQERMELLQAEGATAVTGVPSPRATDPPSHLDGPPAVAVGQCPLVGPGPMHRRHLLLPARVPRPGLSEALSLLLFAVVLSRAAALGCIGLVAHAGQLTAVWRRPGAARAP
Description: as §1

T1 sequence (P21802 22-821): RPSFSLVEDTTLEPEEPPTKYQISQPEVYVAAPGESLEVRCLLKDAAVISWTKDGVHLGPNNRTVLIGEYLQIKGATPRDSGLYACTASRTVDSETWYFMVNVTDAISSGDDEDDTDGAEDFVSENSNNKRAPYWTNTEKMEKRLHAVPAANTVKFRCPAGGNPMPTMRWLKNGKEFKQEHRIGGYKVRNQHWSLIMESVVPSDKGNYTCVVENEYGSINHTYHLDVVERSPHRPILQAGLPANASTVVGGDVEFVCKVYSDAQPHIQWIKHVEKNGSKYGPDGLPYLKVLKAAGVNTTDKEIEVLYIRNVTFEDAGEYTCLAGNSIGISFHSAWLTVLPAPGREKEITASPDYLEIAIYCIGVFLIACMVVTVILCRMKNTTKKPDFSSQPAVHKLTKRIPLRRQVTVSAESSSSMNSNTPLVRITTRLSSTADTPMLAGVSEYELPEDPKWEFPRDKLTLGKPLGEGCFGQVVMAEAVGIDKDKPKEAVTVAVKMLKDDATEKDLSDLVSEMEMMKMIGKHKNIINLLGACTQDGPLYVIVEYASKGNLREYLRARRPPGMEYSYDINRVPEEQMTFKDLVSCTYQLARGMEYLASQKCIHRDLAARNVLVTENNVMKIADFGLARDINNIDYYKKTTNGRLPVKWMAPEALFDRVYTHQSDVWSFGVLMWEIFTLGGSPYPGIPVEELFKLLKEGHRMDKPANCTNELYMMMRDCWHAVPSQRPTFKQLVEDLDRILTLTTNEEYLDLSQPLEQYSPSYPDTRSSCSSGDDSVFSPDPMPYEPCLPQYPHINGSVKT

SMILES	KINOMEscan: FGFR2 [1]	KINOMEscan: DRAK2 [2]	KINOMEscan: DMPK [3]
COc1cc(C(=O)N2CCC(N3CCN(C)CC3)CC2)ccc1Nc1ncc2c(n1)N(C)c1ccccc1C(=O)N2C [15 (LRRK2-IN-1)]	95	93	100
COc1cc(C(=O)N2CCC(N3CCN(C)CC3)CC2)ccc1Nc1ncc2c(n1)N1CCc3cccc(c31)C(=O)N2C [Compound 24]	83		85
COc1cc(C(=O)N2CCC(N3CCN(C)CC3)CC2)ccc1Nc1ncc2c(n1)N(C1CCCC1)c1ccccc1C(=O)N2C [Compound 25, 11-cyclopentyl-2-((2-methoxy-4-(4-(4-methylpiperazin-1-yl)piperidine-1-carbonyl)phenyl)amino)-5-methyl-5H-benzo[e]pyrimido[5,4-b][1,4]diazepin-6(11H)-one]	100	100	96
CCOc1cc(C(=O)N2CCC(N3CCN(C)CC3)CC2)ccc1Nc1ncc2c(n1)N(C1CCCC1)c1ccccc1C(=O)N2C [Compound 26]	100	100	100
